Data on one substance can be found in patent US9084770B2, “Modulation of insulin like growth factor I receptor expression in cancer” (Antisense Therapeutics, Ltd., priority 2008, dated 2015).

The subject of data set [1] is IGF-IR mRNA. The settings on record: other cell lines, dose-dependent and sequence specific; cited from earlier work.
Data set [2] concerns IGF-IRβ, p-AKT, pERK1/2. Briefly: PC3 xenograft tumor proteins, western blotting. Format: in vivo. The note with it: after 7 days of treatment; two of three mice. The method, then: Total PC3 xenograft tumor proteins were extracted after the treatment of IGFI-R antisense oligonucleotide or control oligodeoxynucleotide for 7 days and IGF-IRβ, p-AKT, pERK1/2, and vinculin protein levels were analyzed by western blotting. Tumor growth ratio of corresponding tumors are also shown (FIG. 5E).

For data set [3], the system named is Ptx-R PC3 cells. Briefly: Ptx-R PC3 viable cells after transfection with or without Paclitaxel. Format: cell-based, human. On the procedure:
The number of viable PC3 and PtxR PC3 cells was determined 72 hours after the second transfection.
[…] The number of viable cells remaining was determined 72 hours after the second transfection treatment. ATL1101 treatment enhances the Ptx-R sensitivity to Paclitaxel under standard culture conditions. For example, there was approximately 45% cell viability with 100 nM Paclitaxel and 25 nM control oligodeoxynucleotide whereas, only 25 nM Paclitaxel is needed in the presence of 25 nM ATL1101 to produce the same reduction in cell viability.

For data set [4], the system named is IGF-IRB subunit. Briefly: IGF-IRB immunoblot in PC3 cells with or without Paclitaxel. Format: cell-based, human. The settings on record: 50 nM, with or without 1 nM Paclitaxel. The source says: Vinculin expression is shown as a loading control.
(In general: A western blot detects proteins with antibodies after separation by electrophoresis.)

For data set [5], the system named is PC3 cells. Briefly: PC3 cell cycle and apoptosis, flow cytometry with propidium iodide. Format: cell-based, human. The settings on record: PC3, FBS condition, 200 nM. On the procedure: Established methods were used to test the activity of IGF-IR antisense oligonucleotide on LNCaP and PC-3 cell growth (crystal violet assay) and apoptosis (FACS). Dose- and sequence-specific suppression of IGF-IR mRNA and protein expression in ATL1101-treated LNCaP and PC3 PC cell lines in vitro were observed by QT-PCR and western blotting. Effects of the IGF-IR antisense oligonucleotide on various putative targets, including IGF-IR and downstream targets were evaluated using western blotting.
The Effect of IGF-IR silencing with IGF-IR antisense oligonucleotide (ATL1101) on LNCaP and PC3 cell apoptosis and cell cycle is shown in FIGS. 4A(i)-(ii), 4B, 4C(i)-(ii), and Table 2. Cells were transfected with indicated concentrations of ATL1101, control oligodeoxynucleotide or oligofectamine as in FIGS. 1A(i)-1B(ii). Two days after treatment, cell cycle analysis was determined by flow cytometry using propidium iodide staining. […] In FIGS. 4C(i)-(ii), LNCaP (FIG. 4C (i)) or PC-3 (FIG. 4C (ii)) cells were transfected with indicated concentration of ATL1101 or control oligodeoxynucleotide (ISIS 306064) for two days. Cells were then cultured in FBS media for one day and in serum-free media for one day. Whole cell lysates (30 μg) were subjected to SDS-PAGE and immunoblotted to assess Cyclin D1, Cyclin E, p-RB, total Rb, and p27 protein levels. Oligo, oligofectamine treated cells only.
In general terms: A flow cytometer gives signals particle by particle.

Data set [6] concerns PC3 tumors. Kind of data set: PC-3 xenograft, tumor volume (monotherapy). The note with it: 15 mg/kg i.p. Format: in vivo, mice. The method, then: One million PC-3 or LNCaP cells were injected subcutaneously in athymic mice. For LNCaP xenografts, when PSA values exceeded 50 ng/ml, mice were castrated and randomly selected for treatment with ATL1101 or control oligodeoxynucleotide (15 mg/kg) injected i.p. once daily for 7 days and 3 times per week thereafter. Blood samples were obtained from the tail vein of the mice once weekly to measure serum PSA by ELISA. For PC-3 xenografts, when tumors reached 100 mm^3, mice were randomly selected and treated with the same protocol as LNCaP.
The effects of IGF-IR antisense oligonucleotide treatment in LNCaP and PC-3 tumors in vivo are show in FIGS. 5A-5C. LNCaP cells were inoculated s.c. and when PSA values exceeded 50 ng/ml, mice were castrated and randomly selected for treatment with ATL1101 or control oligodeoxynucleotide (15 mg/kg) injected i.p. once daily for 7 days and 3 times per week thereafter. Blood samples were obtained from the tail vein of the mice once weekly to measure serum PSA by ELISA. PC-3 cells were inoculated s.c. and when tumors reached 100 mm^3, mice were randomly selected for treatment with the same protocol as LNCaP. Each point represents the mean tumor volume in each group containing 10 mice; bars, SE. * differs from control oligodeoxynucleotide treatment group (p<0.05) by Student's t test.

Marks after values point to notes of the source that are not given here.

As for “cgaaggaaacaatactccga (CGAAGGAAACAATACTCCGA; 2'-MOE modified, pattern not given here) [ISIS 175317, 2′-MOE-modified IGF-IR antisense oligonucleotide, also known as ATL1101]”, the “inhibition of IGF-IR mRNA expression” value in data set [1] is listed as “significantly inhibit”. In addition, in data set [2], the “IGF-IR expression in tumor” value is on record as “decreased”; the “activation of AKT and ERK1/2 in tumor” value is “suppressed”. The “Paclitaxel concentration needed to produce the same reduction in cell viability (approximately 45% viability)” value in data set [3] (in the presence of 25 nM ATL1101) came to 25 nM. For the same substance, the “sensitivity of viable cell number to ATL1101” value in data set [3] (up to 250 nM, 72 hours after second transfection, standard culture conditions) is given as “retain ATL1101 sensitivity”. For the same substance, the IGF-IRB levels entry in data set [4] was “specifically reduced”. For the same substance, in data set [5], the “% of total cells, G0/G1” value was 19.3%; the “% of total cells, G2/M” value came out at 8.4%; the “% of total cells, S” value amounted to 9.8%; the “% of total cells, Sub G0/G1” value was found to be 62.5%. For the same substance, the “subG0/G1 + G0/G1:S + G2/M” value in data set [5] is 4.5**. Also, the “tumor volume compared to control oligodeoxynucleotide” value in data set [6] is listed as “significantly reduced”.
